ChEMBL document CHEMBL4811249, “Semisynthesis of Dolabellane Diterpenes: Oxygenated Analogues with Increased Activity against Zika and Chikungunya Viruses” (J Nat Prod, 2021)
The source made the active and inactive calls. The rule behind the calls is not given here.

Tests used:
Chikungunya virus [1] = assay: Antiviral activity against CHIKV infected in African green monkey Vero cells assessed as inhibition of viral replication at 20 uM measured after 4 days relative to control; format: functional; conditions: 96 h, time 4 day; for inhibition at 20 µM: Chikungunya virus, Vero
Zika virus [2] = assay: Antiviral activity against Zika virus infected in African green monkey Vero cells assessed as inhibition of viral replication at 20 uM measured after 4 days relative to control; format: functional; conditions: 96 h, time 4 day; for inhibition at 20 µM: Zika virus, Vero; for inhibition (INH): 20 µM
[3] = (§1) Cytotoxicity against African green monkey Vero cells by MTT assay; format: cell-based; conditions: chlorocebus sabaeus, Vero cells
Chikungunya virus [4] = assay: Antiviral activity against CHIKV infected in African green monkey Vero cells assessed as reduction in viral replication by measuring viral titre after 72 hrs by plaque reduction assay; format: functional, organism-based
[5] = Selectivity index, ratio of CC50 for African green monkey Vero cells to EC50 for CHIKV; format: toxicity; conditions: read-out: Ratio CC50/EC50
Zika virus [6] = assay: Antiviral activity against Zika virus infected in African green monkey Vero cells assessed as reduction in viral replication by measuring viral titre after 72 hrs by plaque reduction assay; format: functional, organism-based
[7] = Selectivity index, ratio of CC50 for African green monkey Vero cells to EC50 for Zika virus; format: toxicity; conditions: read-out: Ratio CC50/EC50
Zika virus [8] = assay: Virucidal activity against Zika virus infected in African green monkey Vero cells at 20 uM measured after 4 hrs relative to control; format: functional
Chikungunya virus [9] = assay: Virucidal activity against CHIKV infected in African green monkey Vero cells at 5 to 20 uM measured after 4 hrs; format: functional, organism-based; conditions: dose 5-20 µM
Chikungunya virus [10] = assay: Antiviral activity against CHIKV infected in African green monkey Vero cells assessed as inhibition of viral adsorption at 20 uM measured after 4 days by crystal violet staining based assay relative to control; format: functional; conditions: 96 h, time 4 day
Vero = assay: as §1; format: cell-based; conditions: chlorocebus sabaeus, vero
Zika virus [11] = assay: Antiviral activity against Zika virus infected in African green monkey Vero cells assessed as inhibition of viral adsorption at 20 uM measured after 4 days by crystal violet staining based assay relative to control; format: functional; conditions: 96 h, time 4 day

Compound | inhibition at 20 µM (Chikungunya virus [1]) [%] | inhibition at 20 µM (Zika virus [2]) [%] | CC50 [3] [µM] | also measured
CC(C)=C1C(=O)C[C@@]2(C)C[C@H]3O[C@]3(C)CC/C=C(\C)CC[C@H]12 | 82 | 65 | 470 | EC50 (Chikungunya virus [4]): 9.5 µM; selectivity ratio [5]: 50
CC(C)=C1C(=O)C[C@@]2(C)C/C=C(\C)CC/C=C(\C)CC[C@H]12 [DOLABELLANE] | 0 | 0 | 150 | 
CC(C)=C1[C@H]2CC[C@@]3(C)O[C@@H]3CC/C(C)=C/C[C@]2(C)C[C@@H]1O | 45 | 99 | 580 | EC50 (Zika virus [6]): 1.2 µM; selectivity ratio [7]: 480; Activity (Zika virus [8]): 80%
CC(=O)OC/C1=C\CC/C(C)=C/C[C@]2(C)CC(=O)C(=C(C)C)[C@H]2CC1 | 0 | 30 | 250 | 
C=C(C)C1=CC[C@@]2(C)C/C=C(\C)CC/C=C(\CO)CC[C@H]12 | 0 | 61 | 600 | 
C=C(C)C1=CC[C@@]2(C)C[C@H]3O[C@]3(C)CC[C@H]3O[C@]3(C)CC[C@H]12 | 0 | 60 | 480 | 
CC(C)=C1C(=O)C[C@@]2(C)C/C=C(\C)CC[C@H]3O[C@]3(C)CC[C@H]12 | 99 | 38 | 530 | EC50 (Chikungunya virus [4]): 1.2 µM; selectivity ratio [5]: 440; Activity (Chikungunya virus [9]): Active; inhibition at 20 µM (Chikungunya virus [10]): > 90%
CC(C)=C1[C@H](O)C[C@@]2(C)C[C@H]3O[C@]3(C)CC[C@H]3O[C@]3(C)CC[C@H]12 | 44 | 49 | 960 | 
COC1(C)CC[C@@H](O)[C@]2(C)CC[C@@H]3C(=C(C)C)C(=O)C[C@@]3(C)C[C@@H]12 (relative stereo; 19) |  |  |  | inhibition (INH) (Chikungunya virus [1]; 20 µM): 40%; inhibition (INH) (Zika virus [2]): 59%; CC50 (Vero): 650 µM
CC(C)=C1C(=O)C[C@@]2(C)C/C=C(\CO)CC[C@H]3O[C@]3(C)CC[C@H]12 | 71 | 60 | 800 | EC50 (Chikungunya virus [4]): 13 µM; selectivity ratio [5]: 61
CC(=O)O[C@@H]1C[C@@]2(C)C/C=C(\C)CC/C=C(\C)CC[C@@H]2C1=C(C)C | 99 | 62 | 100 | EC50 (Chikungunya virus [4]): 1.2 µM; selectivity ratio [5]: 83; Activity (Chikungunya virus [9]): Active; inhibition at 20 µM (Chikungunya virus [10]): > 90%
CC(C)=C1[C@H]2CC[C@@]3(C)O[C@@H]3CC[C@@]3(C)O[C@@H]3C[C@]2(C)C[C@@H]1O | 98 | 81 | 1000 | EC50 (Zika virus [6]): 8.9 µM; EC50 (Chikungunya virus [4]): 0.7 µM; selectivity ratio [7]: 110; selectivity ratio [5]: 1400
C[C@H]1/C=C/[C@@]2(C)CC[C@@H](C(C)(C)O)[C@@H]2[C@@H](O)C[C@](C)(O)/C=C/C1 | 35 | 50 | 400 | 
CC(C)=C1C(=O)C[C@@]2(C)C[C@H]3O[C@]3(C)CC[C@H]3O[C@]3(C)CC[C@H]12 | 0 | 56 | 960 | 
CC(C)=C1[C@H]2CC/C(C)=C/CC/C(C)=C/C[C@]2(C)C[C@@H]1O | 0 | 51 | 190 | 
CC(C)=C1C(=O)C[C@@]2(C)C/C=C(\C=O)CC[C@H]3O[C@]3(C)CC[C@H]12 | 39 | 99 | 750 | EC50 (Zika virus [6]): 0.9 µM; selectivity ratio [7]: 830; Activity (Zika virus [8]): 90%
CC(C)=C1C(=O)C[C@@]2(C)C/C=C(\C)CC/C=C(\C=O)CC[C@H]12 | 29 | 0 | 100 | 
CC1=CC[C@@H](O)[C@]2(C)CC[C@@H]3C(=C(C)C)C(=O)C[C@@]3(C)C[C@@H]12 | 65 | 99 | 580 | EC50 (Zika virus [6]): 2.1 µM; selectivity ratio [7]: 280
NC(=O)c1ncn([C@@H]2O[C@H](CO)[C@@H](O)[C@H]2O)n1 [RIBAVIRIN] | 97 | 93 |  | 
COC1(C)CC[C@@H](O)[C@]2(C)CC[C@@H]3C(=C(C)C)C(=O)C[C@@]3(C)C[C@@H]12 (relative stereo; 18) | 25 |  | 730 | inhibition (INH) (Zika virus [2]): 100%; EC50 (Zika virus [6]): 1.8 µM; selectivity ratio [7]: 410; inhibition at 20 µM (Zika virus [11]): > 90%
CC(C)=C1[C@H](O)C[C@@]2(C)C/C=C(\C)CC[C@H]3O[C@]3(C)CC[C@H]12 | 33 | 30 | 430 | 
